Where “and” joins values, the source holds several entries; their conditions need not be identical. Equal entries are not always repeated.
What was measured:
RIP1 kinase = target: T1, RIP1 kinase (Homo sapiens, UniProt Q13546); test: fluorescent polarization based binding assay; details: mean of a minimum of 2 experiments
T1 sequence (Q13546 1-375 limits assumed): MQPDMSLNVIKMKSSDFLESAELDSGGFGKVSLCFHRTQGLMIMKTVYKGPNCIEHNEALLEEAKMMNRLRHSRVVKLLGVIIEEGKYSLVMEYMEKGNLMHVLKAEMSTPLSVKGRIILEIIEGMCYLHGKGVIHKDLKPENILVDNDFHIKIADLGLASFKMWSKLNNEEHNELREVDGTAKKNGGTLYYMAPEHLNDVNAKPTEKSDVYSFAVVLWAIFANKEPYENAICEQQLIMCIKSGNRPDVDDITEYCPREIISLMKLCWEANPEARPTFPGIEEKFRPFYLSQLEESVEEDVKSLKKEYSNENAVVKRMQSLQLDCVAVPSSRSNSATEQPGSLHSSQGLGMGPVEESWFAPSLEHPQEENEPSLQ
Description: A fluorescent polarization based binding assay was used to assess the activity of the compounds of this invention, the details of which are disclosed in International Patent Appln. No. PCT/IB2014/059004, now, International Patent Appln. Pub.

[1] = system: human monocytic leukemia U937 cells; test: necroptosis assay in U937 cells; format: cell-based; details: Homo sapiens, U-937, U937 cells; viability by cellular ATP (Cell Titer-Glo); read-out: pIC50, inhibited necrosis in U937 cells (converted)
Experimental: The efficacy of RIP1 inhibitors can be tested […] in vitro using a human monocytic leukemia U937 or mouse L929 fibrosarcoma cells in a necroptosis assay. As determined using the method described in S. He et al., Cell, 137(6):1100-1111 (2009) and International Patent Appln. No. PCT/IB2014/059004, now, International Patent Appln. Pub.
Viability was measured by quantitating cellular levels of ATP using the Cell Titer-Glo kit. All data are means±standard deviation of the mean.

Row | SMILES | IC50 (RIP1 kinase) | IC50 [1] [nM]
1 | O=C(C1CCN(c2nnc(-c3ccccc3)o2)CC1)N1N=CC[C@H]1c1ccccc1 [Example 57, (S)-(1-(5-phenyl-1,3,4-oxadiazol-2-yl)piperidin-4-yl)(5-phenyl-4,5-dihydro-1H-pyrazol-1-yl)methanone] | 1 to 31.6 nM | 1 to 100
2 | CCOc1ccnc(N2CCC(C(=O)N3N=CC[C@H]3c3ccccc3)CC2)n1 [Example 58, (S)-(1-(4-ethoxypyrimidin-2-yl)piperidin-4-yl)(5-phenyl-4,5-dihydro-1H-pyrazol-1-yl)methanone] | 1 to 31.6 nM and 1 to 10 nM | 1 to 100
3 | CSc1cc(N2CCC(C(=O)N3N=CC[C@H]3c3ccccc3)CC2)ncn1 [Example 59, (S)-(1-(6-(methylthio)pyrimidin-4-yl)piperidin-4-yl)(5-phenyl-4,5-dihydro-1H-pyrazol-1-yl)methanone] | 1 to 31.6 nM and 1 to 10 nM | 1 to 100
4 | CSc1nc(N)cc(N2CCC(C(=O)N3N=CC[C@H]3c3ccccc3)CC2)n1 [Example 60, (S)-(1-(6-amino-2-(methylthio)pyrimidin-4-yl)piperidin-4-yl)(5-phenyl-4,5-dihydro-1H-pyrazol-1-yl)methanone] | 1 to 31.6 nM | 1 to 100
5 | Nc1ncnc(N2CCC(C(=O)N3N=CC[C@H]3c3ccccc3)CC2)c1F [Example 61, (S)-(1-(6-amino-5-fluoropyrimidin-4-yl)piperidin-4-yl)(5-phenyl-4,5-dihydro-1H-pyrazol-1-yl)methanone] | 1 to 31.6 nM and 1 to 10 nM | 1 to 100
6 | CC(=O)Nc1cncc(N2CCC(C(=O)N3N=CC[C@H]3c3ccccc3)CC2)n1 [Example 64, (S)-N-(6-(4-(5-phenyl-4,5-dihydro-1H-pyrazole-1-carbonyl)piperidin-1-yl)pyrazin-2-yl)acetamide] | 1 to 31.6 nM and 1 to 10 nM | 1 to 100
7 | O=C(C1CCN(c2ncc(-c3ccccc3)o2)CC1)N1N=CC[C@H]1c1ccccc1 [Example 67, (S)-(5-phenyl-4,5-dihydro-1H-pyrazol-1-yl)(1-(5-phenyloxazol-2-yl)piperidin-4-yl)methanone] | 1 to 31.6 nM | 1 to 100
8 | N#Cc1cccc([C@@H]2CC=NN2C(=O)C2CCN(c3cc(C#N)ncn3)CC2)c1 [Example 68, (S)-6-(4-(5-(3-cyanophenyl)-4,5-dihydro-1H-pyrazole-1-carbonyl)piperidin-1-yl)pyrimidine-4-carbonitrile] | 1 to 31.6 nM | 1 to 100
9 | COc1ccnc(N2CCC(C(=O)N3N=CC[C@H]3c3cccc(C#N)c3)CC2)n1 [Example 69, (S)-3-(1-(1-(4-methoxypyrimidin-2-yl)piperidine-4-carbonyl)-4,5-dihydro-1H-pyrazol-5-yl)benzonitrile] | 1 to 31.6 nM and 1 to 10 nM | 1 to 100
10 | N#Cc1cccc([C@@H]2CC=NN2C(=O)C2CCN(c3cc(C(N)=O)ncn3)CC2)c1 [Example 70, (S)-6-(4-(5-(3-cyanophenyl)-4,5-dihydro-1H-pyrazole-1-carbonyl)piperidin-1-yl)pyrimidine-4-carboxamide] | 1 to 31.6 nM | 1 to 100
11 | N#Cc1cccc([C@@H]2CC=NN2C(=O)C2CCN(c3ncc(F)c(N)n3)CC2)c1 [Example 72, (S)-3-(1-(1-(4-amino-5-fluoropyrimidin-2-yl)piperidine-4-carbonyl)-4,5-dihydro-1H-pyrazol-5-yl)benzonitrile] | 1 to 31.6 nM | 1 to 100

Second part, led by results:

Row | IC50 (RIP1 kinase) | SMILES | IC50 [1] [nM]
12 | 1 to 31.6 nM | N#Cc1cccc([C@@H]2CC=NN2C(=O)C2CCN(c3ccc4nccn4n3)CC2)c1 [Example 73, (S)-3-(1-(1-(imidazo[1,2-b]pyridazin-6-yl)piperidine-4-carbonyl)-4,5-dihydro-1H-pyrazol-5-yl)benzonitrile] | 1 to 100
13 | 1 to 31.6 nM | N#Cc1cccc([C@@H]2CC=NN2C(=O)C2CCN(c3ccnc(C#N)n3)CC2)c1 [Example 74, (S)-4-(4-(5-(3-cyanophenyl)-4,5-dihydro-1H-pyrazole-1-carbonyl)piperidin-1-yl)pyrimidine-2-carbonitrile] | 1 to 100
14 | 1 to 31.6 nM | N#Cc1cccc([C@@H]2CC=NN2C(=O)C2CCN(c3ncc4cn[nH]c4n3)CC2)c1 [Example 76, (S)-3-(1-(1-(1H-pyrazolo[3,4-d]pyrimidin-6-yl)piperidine-4-carbonyl)-4,5-dihydro-1H-pyrazol-5-yl)benzonitrile] | 1 to 100
15 | 1 to 31.6 nM and 1 to 10 nM | COc1ccnc(N2CCC(C(=O)N3N=CC[C@H]3c3cc(F)cc(F)c3)CC2)n1 [Example 79, (S)-(5-(3,5-difluorophenyl)-4,5-dihydro-1H-pyrazol-1-yl)(1-(4-methoxypyrimidin-2-yl)piperidin-4-yl)methanone] | 1 to 100
16 | 1 to 31.6 nM and 1 to 10 nM | O=C1Cc2cnc(N3CCC(C(=O)N4N=CC[C@H]4c4cc(F)cc(F)c4)CC3)nc2N1 [Example 80, (S)-2-(4-(5-(3,5-difluorophenyl)-4,5-dihydro-1H-pyrazole-1-carbonyl)piperidin-1-yl)-5H-pyrrolo[2,3-d]pyrimidin-6(7H)-one] | 1 to 100
17 | 1 to 31.6 nM and 1 to 10 nM | CSc1nccc(N2CCC(C(=O)N3N=CC[C@H]3c3cc(F)cc(F)c3)CC2)n1 [Example 82, (S)-(5-(3,5-difluorophenyl)-4,5-dihydro-1H-pyrazol-1-yl)(1-(2-(methylthio)pyrimidin-4-yl)piperidin-4-yl)methanone] | 1 to 100
18 | 1 to 31.6 nM | Nc1nccc(N2CCC(C(=O)N3N=CC[C@H]3c3cc(F)cc(F)c3)CC2)n1 [Example 84, (S)-(1-(2-aminopyrimidin-4-yl)piperidin-4-yl)(5-(3,5-difluorophenyl)-4,5-dihydro-1H-pyrazol-1-yl)methanone] | 1 to 100
19 | 1 to 31.6 nM and 1 to 10 nM | O=C(C1CCN(c2ccc3nccn3n2)CC1)N1N=CC[C@H]1c1cc(F)cc(F)c1 [Example 87, (S)-(5-(3,5-difluorophenyl)-4,5-dihydro-1H-pyrazol-1-yl)(1-(imidazo[1,2-b]pyridazin-6-yl)piperidin-4-yl)methanone] | 1 to 100
20 | 1 to 31.6 nM | N#Cc1cncnc1N1CCC(C(=O)N2N=CC[C@H]2c2cc(F)cc(F)c2)CC1 [Example 88, (S)-4-(4-(5-(3,5-difluorophenyl)-4,5-dihydro-1H-pyrazole-1-carbonyl)piperidin-1-yl)pyrimidine-5-carbonitrile] | 1 to 100
21 | 1 to 31.6 nM and 1 to 10 nM | COc1cc(N2CCC(C(=O)N3N=CC[C@H]3c3cc(F)cc(F)c3)CC2)ncn1 [Example 91, (S)-(5-(3,5-difluorophenyl)-4,5-dihydro-1H-pyrazol-1-yl)(1-(6-methoxypyrimidin-4-yl)piperidin-4-yl)methanone] | 1 to 100
22 | 1 to 31.6 nM and 1 to 10 nM | N#Cc1cnc(N2CCC(C(=O)N3N=CC[C@H]3c3cc(F)cc(F)c3)CC2)nc1 [Example 92, (S)-2-(4-(5-(3,5-difluorophenyl)-4,5-dihydro-1H-pyrazole-1-carbonyl)piperidin-1-yl)pyrimidine-5-carbonitrile] | 1 to 100
23 | 1 to 31.6 nM | Nc1ccnc(N2CCC(C(=O)N3N=CC[C@H]3c3cc(F)cc(F)c3)CC2)n1 [Example 93, (S)-(1-(4-aminopyrimidin-2-yl)piperidin-4-yl)(5-(3,5-difluorophenyl)-4,5-dihydro-1H-pyrazol-1-yl)methanone] | 1 to 100
24 | 1 to 31.6 nM | NC(=O)c1cnc(N2CCC(C(=O)N3N=CC[C@H]3c3cc(F)cc(F)c3)CC2)nc1 [Example 96, (S)-2-(4-(5-(3,5-difluorophenyl)-4,5-dihydro-1H-pyrazole-1-carbonyl)piperidin-1-yl)pyrimidine-5-carboxamide] | 1 to 100

Reference: patent publication US20190345138A1, “HETEROCYCLIC AMIDES AS KINASE INHIBITORS” (GlaxoSmithKline Intellectual Property Development Limited, priority 2016, published 2019)
